Measured values published in patent US20090117089A1, “GLYCOLIPIDS AND ANALOGUES THEREOF AS ANTIGENS FOR NK T CELLS” (The Rockefeller University, priority 2005, published 2009).

What was measured:
CD8+ P1CTL T cells = experiment: Proliferation and differentiation of P1A-specific P1CTL CD8+ T cells; type: in vivo, mouse
Protocol: CD8^+ P1A-specific, T cells were prepared from meshed cell suspensions of TCR transgenic lymph nodes and spleen by depleting B220, CD4, F4/80 and MHC class II-expressing cells using sheep anti-rat IgG Dynabeads®. For CFSE labeling (Molecular Probes), the cells at 10^7/ml in PBS were incubated with 5 μM CFSE for 10 min at 37° C. The reaction was stopped by washing three times with PBS.
2×10^7 irradiated J558-Ld^− cells, were injected i.v. or s.c. into Balb/c mice with or without α-Gal Cer as a DC maturation stimulus. In some experiments we compared α-Gal Cer to agonistic anti-CD40 mAb (1C10, 25 μg i.p.) or the toll like receptor ligands, poly IC ([…], Invivogen) or lipopolysaccharide (20 μgm, Sigma). The mice had been given CFSE-labeled PICTL CD8^+ T cells i.v. 1 d earlier, or were naive animals. In some experiments, mice were sacrificed 3 d later, and T cell division and activation in spleen were analyzed by flow cytometry. Additionally, 7 d or 2 months later, 5×10^6 live J558 tumor cells were inoculated subcutaneously. 5×10^6 Meth A fibrosarcoma was used as a control tumor for challenge. Tumor cell growth was measured with calipers every other day. Mice were scored positive for tumor as soon as tumors became palpable and grew progressively. Mice were euthanized when tumor size exceeded 400 mm^2.
T-cell division, phagocytosis of CFSE-labeled tumor cells and acquisition of cell surface-activation markers were determined by flow cytometry. Briefly, spleens were harvested and low-density splenocytes were stained with CD11c-APC and CD8α-PE, CD11b-PE, B220-PE or CD4-PE for the up-take examination. For in vivo proliferation of P1CTL T-cells, spleens were harvested and the splenocytes suspension was staining with CD8α-Cy, Vα8α-PE, CD25-PE, CD62L-PE. For intracellular cytokine staining, splenocytes were stimulated in vitro with 1 µg/ml P1A peptide in 5 μg/ml brefeldin A (Sigma-Aldrich) at 37° C. for 4 hrs. The cells were first stained with CD8α-Cy-Chrome™, fixed and permeabilized with cytofix-cytoperm buffer (BD Biosciences), and stained with PE conjugated mAbs to IL-2 or IFN-γ.

[1] = tested on: allogeneic C57B1/6 or syngeneic T cells; experiment: Stimulation of the mixed leukocyte reaction (MLR) by DCs; type: cell-based, mouse
Protocol: Stimulation of the mixed leukocyte reaction (MLR) by DCs. Spleen DCs were isolated using anti-CD11c magnetic beads 8 h after administration of αGalCer, 24, or PBS. Graded numbers of spleen DCs from BALB/C mice were irradiated and cultured with 2×10^5 allogeneic C57B1/6 or syngeneic T cells, isolated using anti-CD4 coated magnetic beads (Miltenyi Biotech), in a 96-well flat-bottom plate for 88 h. During the final 16 h, ^3H-thymidine (1 μCi/well) was added.

A20 tumor cells = experiment: Tumor protection assay, A20; type: in vivo, mouse; settings: A20 challenge s.c.
Protocol: Mice were also injected i.v. with PBS, 2 μg α-Gal Cer, 5×10^6 irradiated A20 cells with or without 2 μg α-Gal Cer i.v. Two weeks later, mice were challenged with a lethal tumorogenic dose of 5×10^6 live A20 s.c. The mice were monitored every other day for tumor growth and were scored positive when the tumors were palpable.

[2] = tested on: CD1d reactive T cell hybridomas with an invariant Vα14i T cell antigen receptor; experiment: 1.2 hybridoma assay (IL-2 release by ELISA); type: cell-based, mouse
Protocol: As a measure of T cell activation, IL-2 release into the tissue culture medium was measured after 16 hours culture by an ELISA assay.
As a measure of T cell activation, IL-2 and IFN-γ release into the tissue culture medium was measured after 16 hours culture by an ELISA assay.

[3] = target: T1, human CD1d dimers / invariant T cell receptor of human NKT cells (Homo sapiens, UniProt P15813); experiment: In vitro CD1d-dimer assay using a human NKT cell line; type: binding; settings: dimers loaded with 40 μM glycolipid
T1 construct: soluble divalent human CD1d-IgG1 fusion protein; IgG1 (immunoglobulin fusion partner that makes the protein divalent); purchased BD Pharmingen / BD Biosciences (DimerX)
Protocol: One mg of soluble divalent human CD1d-IgG1 fusion protein (human CD1d-IgG1 dimers, BD Pharmingen) were incubated overnight with […] of each glycolipid at 32° C. and at neutral pH according to the manufacturer's protocol. The glycolipid-loaded CD1d-IgG1 dimers were incubated with human NKT cells at 4° C. for 60 minutes, followed by incubation with PE-coupled anti-mouse IgG1 mAb (A85-1). The cells were also surface stained with a PerCP-coupled anti-CD3 mAb (BD Pharmingen, San Diego, Calif.).
CD1d-dimer binding assay. CD1d dimer (DimerX, BD Biosciences) was incubated overnight with 40 μM of each glycolipid at 32° C. and at neutral pH according to the manufacturer's protocol. The loaded CD1d dimers were incubated with a human NKT cell line at 4° C. for 60 min, followed by incubation with APC-conjugated secondary antibody. The cells were also co-stained with mAbs against the invariant NKT cell receptor (Vα24/Vβ11). At least 2×10^5 lymphocyte-gated events were acquired to allow reliable estimation of NKT cells.

| Compound | stimulation of naïve CD8+ P1CTL T cells in culture by isolated DCs (CD8+ P1CTL T cells; DCs from mice given dying J558 with α-Gal Cer) | P1CTL proliferation in vivo after DC transfer (CD8+ P1CTL T cells; DCs isolated 4 hours after immunization, 3 days) | IFN-γ and IL-2 production on restimulation with P1A peptide (CD8+ P1CTL T cells; T cells stimulated in vivo in presence of α-Gal Cer) | P1CTL T cell proliferation in vivo (CD8+ P1CTL T cells; irradiated J558− plus α-Gal Cer vs J558− alone, 3 days) | stimulation of allogeneic T cells (allo-MLR) by DCs from treated mice [1] | stimulation of syngeneic T cells (syn-MLR) by DCs from treated mice [1] | tumor outcome after combined vaccination (A20 tumor cells; irradiated A20 cells and α-Gal Cer i.v.) | tumor outcome after glycolipid alone (A20 tumor cells; α-Gal Cer pretreatment alone) | IL-2 release from the hybridomas ([2]; 1 μg/ml, CD1d transfected A20 cells) | IL-2 secretion ([2]; CD1d coated plates, Sphingomonas glycolipids and analogues) | binding of loaded CD1d dimers to Vα24/Vβ11 invariant TCR expressing NKT cells [3] | biological activity in the 1.2 hybridoma assay (IL-2 secretion) [2] |
| --- | --- | --- | --- | --- | --- | --- | --- | --- | --- | --- | --- | --- |
| CCCCCCCCCCCCCCCCCCCCCCCCCC(=O)N[C@@H](CO[C@H]1O[C@H](CO)[C@H](O)[C@H](O)[C@H]1O)[C@H](O)[C@H](O)CCCCCCCCCCCCCC [α-GalCer, 2S,3S,4R-1-O(α-galactopyranosyl)-2(N-hexacosanoylamino)-1,3,4-octadecanetriol] | much more effective at stimulating proliferation of naïve CD8^+ T cells in culture | P1CTL proliferation was detected only in response to DCs from mice given tumor with α-Gal Cer | significantly more IFN-γ and IL-2 | proliferated more extensively | equally potent stimulators of the allo-MLR | no stimulatory activity in the syn-MLR | protected and remained tumor-free | development of palpable tumors | greatest amount of IL-2 release | greater IL-2 secretion | – | – |
| 3-O-sulfo-alpha-galactosylceramide [Compound 24] | – | – | – | – | equally potent stimulators of the allo-MLR | no stimulatory activity in the syn-MLR | – | – | – | – | to a lesser extent than α-GalCer | moderately active |
